Experimental data as given in PubChem BioAssay AID720589 (Broad Institute, 2013).
Activity calls are given as the source filed them.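 The calls were made as follows: active = fitted curve drops below -35% activity at a concentration within twice the top valid tested dose; inconclusive = no clear call, values can overlap the other calls; inactive = signal rising instead of falling, among other cases.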

Assay: HepG2 hepatoma cell cytotoxicity, dose response, cytotoxicity control, CellTiter-Glo luminescence, cherry-pick, set 3 (AID 720589)
Conditions: HepG2 viability, ATP luminescence (CellTiter-Glo), 72 h; at 0.011 µM; active compounds read low; 0% = untreated, negative = ATP loss

Compound | max activity
N/C(=C\C(=O)c1cc(Cl)ccc1O)C(Cl)(Cl)Cl | -18.1% (inactive)
C[C@@H]1CN([C@@H](C)CO)S(=O)(=O)c2ccc(C#Cc3ccncc3)cc2O[C@H]1CN(C)C(=O)C1CCOCC1 | -28.4% (inactive)
COc1ccc(C(=O)OCC(=O)Nc2ccc(Cl)c(C(F)(F)F)c2)c(OC)c1OC | -15% (inactive)
COc1ccc(/C=C2/NC(=O)N(CC(=O)Nc3cccc(C)c3)C2=O)cc1O | 18.1% (inactive)
COc1ccc(N=C2C(=O)Nc3ccc(C)c(Br)c32)cc1 | 23.9% (inactive)
CCOC(=O)c1c(-c2ccc(C)cc2)csc1NC(=O)CCN1CCOCC1 | 41.8% (inactive)

Same assay, conditions: HepG2 viability, ATP luminescence (CellTiter-Glo), 72 h; at 0.035 µM; active compounds read low

Compound | max activity
O=C1NC2C(=CC(O)C(O)C2O)c2cc3c(cc21)OCO3 (stereo unspecified) | -17.9% (inactive)

Same assay, conditions: HepG2 viability, ATP luminescence (CellTiter-Glo), 72 h; at 0.035 µM; active compounds read low; 0% = untreated, negative = ATP loss

Compound | max activity
O=C(O)c1ccccc1C(=O)Nc1ccc(Oc2cccc3ccccc23)cc1 | -12.6% (inactive)
COc1ccc(S(=O)(=O)N2CC[C@@H]3[C@@H](CO)Nc4ccc(-c5ccc(C#N)cc5)cc4[C@@H]32)cc1 | -30.2% (inactive)
Cc1ccc(C(=O)CN2C(=O)c3ccccc3S2(=O)=O)cc1 | 23.9% (inactive)
C[C@H]1CN([C@@H](C)CO)C(=O)Cc2cc(NC(=O)C3CC3)ccc2O[C@H]1CN(C)S(=O)(=O)c1ccc(Cl)cc1 | -39.2% (inactive)
CCCn1c(C)cc(C(=O)CN2C(=O)c3ccccc3S2(=O)=O)c1C | 5.3% (inactive)
COc1ccc(/C=C2\SC(=O)N(CCCC(=O)Nc3cc(Cl)ccc3C(=O)O)C2=O)cc1 | -25.6% (inactive)
COc1ccc(C2=Nn3c(nnc3-c3ccccc3OC)SC2)cc1OCC1CC1 | -29% (inactive)
COc1ccc(CCCNC(=O)C2Cc3c(-c4ccc5c(c4)OCO5)ccnc3O2)cc1 (stereo unspecified) | -34% (inactive)

Same assay, conditions: HepG2 viability, ATP luminescence (CellTiter-Glo), 72 h; at 0.1 µM; active compounds read low; 0% = untreated, negative = ATP loss

Compound | max activity
CCCNC(=O)[C@@H]1[C@@H](CO)[C@@H]2Cn3c(ccc(-c4ccccc4)c3=O)[C@H]1N2C(=O)CC | -16.5% (inactive)
COC(=O)C(CC#Cc1ccc2c(c1)[C@]1(C(=O)N2)[C@H](c2ccc(OCCO)cc2)N2[C@H](c3ccccc3)[C@H](c3ccccc3)OC(=O)[C@H]2[C@@H]1C(=O)N1CCN(c2ncccn2)CC1)C(=O)OC | -11.5% (inactive)
O=C1Nc2ccccc2C1=Nc1ccccc1-c1ccccc1 | 10.3% (inactive)
C[C@@H]1CN([C@@H](C)CO)S(=O)(=O)c2ccc(C#CCN(C)C)cc2O[C@@H]1CN(C)Cc1ccncc1 | -45% (inactive)
CC(=O)Nc1cc(C(=O)NCc2ccco2)ccc1Sc1ccc(F)cc1 | -21.9% (inactive)
COC(=O)C[C@H]1C=C[C@@H](NC(=O)Nc2ccc(C(F)(F)F)cc2)[C@H](CO)O1 | -17.7% (inactive)
Cc1nn(Cc2ccccc2Cl)c2sc(C(=O)Nc3ccccc3N3CCOCC3)cc12 | 13.3% (inactive)
C[C@H]1CN([C@@H](C)CO)C(=O)Cc2cc(NC(=O)CCCCCC(=O)Nc3ccccc3N)ccc2O[C@H]1CN(C)Cc1ccc(Oc2ccccc2)cc1 | -23.9% (inactive)
COc1ccc(C/C(N)=N/OC(C)=O)cc1OC | -33.4% (inactive)
O=C(NC(=O)c1ccccc1)Nc1ccccc1 | -38.9% (inactive)
Cc1ccc(S(=O)(=O)N(C)C[C@H]2Oc3c(cccc3N(C)C)C(=O)N([C@@H](C)CO)C[C@@H]2C)cc1 | -28.2% (inactive)

Same assay, conditions: HepG2 viability, ATP luminescence (CellTiter-Glo), 72 h; at 0.3 µM; active compounds read low; 0% = untreated, negative = ATP loss

Compound | max activity
COc1ccc2nc(-c3ccc(F)cc3)sc2c1 | -47.1% (inactive)
COc1cc(-c2cnc3c(NC=O)cc(-c4cccc(NC(C)=O)c4)cn23)cc(OC)c1OC | -32.8% (inactive)
Nc1ccc(Oc2ccccc2-c2ccccc2)cc1 | -37% (inactive)
Cc1ccc(/C=C2\SC(=S)N(CCC(=O)NNC(=O)c3ccccc3O)C2=O)cc1 | -42.1% (inactive)
OCCN1CCN(C(=S)c2ccc(-c3ccccc3)cc2)CC1 | -28.5% (inactive)
CC(C)CC(NC(=O)c1cccs1)c1nnc(SCc2ccc(Cl)c(Cl)c2)n1C (stereo unspecified) | -28.1% (inactive)
COC(=O)C[C@@H]1CC[C@@H]2[C@H](COc3ccc(NC(=O)c4cc(C)on4)cc3C(=O)N2C)O1 | -20% (inactive)

Same assay, conditions: HepG2 viability, ATP luminescence (CellTiter-Glo), 72 h; at 0.9 µM; active compounds read low

Compound | max activity
COC(=O)[C@H]1[C@H](CO)[C@H]2Cn3c(ccc(-c4ccccc4F)c3=O)[C@@H]1N2CC1CCCC1 | -23.4% (inactive)

Same assay, conditions: HepG2 viability, ATP luminescence (CellTiter-Glo), 72 h; at 0.9 µM; active compounds read low; 0% = untreated, negative = ATP loss

Compound | max activity
CCc1ccc(Cn2ncc3c(C(=O)O)cc(C)nc32)cc1 | -27.2% (inactive)
CCc1cnc(N2[C@H](C#N)[C@H](c3ccc(C#Cc4ccccc4F)cc3)[C@H]2CO)s1 | 65.8% (inactive)
COC(=O)C[C@@H]1CC[C@@H]2[C@H](COc3ccc(NC(=O)Nc4ccc(C#N)cc4)cc3C(=O)N2C)O1 | -48.5% (inactive)
O=C(Nc1ccc(NC(=O)c2cc3ccccc3o2)cc1)c1ccc2c(c1)OCCO2 | -30.6% (inactive)
Cc1ccc(NC(=O)COC(=O)c2ccc3c(c2)OCO3)cc1S(=O)(=O)N1CCCCC1 | -30.2% (inactive)

Same assay, conditions: HepG2 viability, ATP luminescence (CellTiter-Glo), 72 h; at 2.85 µM; active compounds read low; 0% = untreated, negative = ATP loss

Compound | max activity
COC(=O)C[C@@H]1CC[C@@H]2[C@@H](COc3ccc(NC(=O)Cc4cccs4)cc3C(=O)N2C)O1 | -25% (inactive)
N#C[C@H]1[C@H](c2ccc(C#Cc3ccccc3F)cc2)[C@@H](CO)N1C(=O)C1CCOCC1 | -21.8% (inactive)
CCOc1ccc(-c2cc(CCCC(=O)NCc3ccc(C)cc3)no2)cc1 | -24.4% (inactive)
CC(Oc1cccc(Cl)c1)C(=O)NCCCCc1ccccc1 (stereo unspecified) | 18.7% (inactive)
COc1cc(-c2coc3c(C(=O)NCc4ccc(C(F)(F)F)cc4)cccc23)ccc1O | -25.6% (inactive)
CC(C)NC(=O)N(C)C[C@@H]1Oc2cc(C#Cc3ccc(F)cc3)ccc2S(=O)(=O)N([C@H](C)CO)C[C@H]1C | -21.1% (inactive)
COC(=O)C[C@@H]1CC[C@@H]2[C@@H](COc3ccc(NC(=O)Nc4cccc(F)c4)cc3C(=O)N2C)O1 | -34.7% (inactive)
O=c1[nH]c(=O)n([C@H]2C[C@H](O)[C@@H](CO)O2)cc1F | -50.3% (inactive)
C[C@H](CO)N1C[C@H](C)[C@H](CN(C)Cc2ccc(C(=O)Nc3ccccc3N)cc2)Oc2ccc(NS(=O)(=O)c3cccs3)cc2C1=O | -29.1% (inactive)
COc1ccc(-c2cnc3c(NC=O)cc(-c4ccccc4OC)cn23)cc1OC | -32.9% (inactive)
O=C(C[C@@H]1C[C@H]2c3cc(NC(=O)CC4CC4)ccc3O[C@H]2[C@H](CO)O1)NCc1ccccc1F | -31.6% (inactive)

Same assay, conditions: HepG2 viability, ATP luminescence (CellTiter-Glo), 72 h; at 8 µM; active compounds read low; 0% = untreated, negative = ATP loss

Compound | max activity
O=C(C[C@@H]1C[C@H]2c3cc(NS(=O)(=O)c4ccc(F)cc4)ccc3O[C@H]2[C@H](CO)O1)NCc1ccc(-c2ccccc2)cc1 | -26.1% (inactive)
Cc1ccc(-c2ccc3c(c2)O[C@@H](CN(C)C(=O)Nc2ccc(F)cc2)[C@H](C)CN([C@@H](C)CO)S3(=O)=O)cc1 | -53.8% (inactive)
COc1ccc(OC)c(/C=C/c2ccnc3ccccc23)c1 | -41.5% (inactive)
Cc1ccc(Cl)cc1NC(=O)Cn1cc(C(F)(F)F)cc(Cl)c1=O | -28.6% (inactive)
CN(c1ccc(NC(=O)CCc2c[nH]c3ccccc23)cc1)c1ccccn1 | -31.2% (inactive)
Nc1ccc2c(c1)OC1(CCCC1)O2 | -32.8% (inactive)
COC(=O)C[C@@H]1CC[C@@H]2[C@@H](COc3ccc(NC(=O)Nc4cccc(Cl)c4)cc3C(=O)N2C)O1 | -33.7% (inactive)
CN(C)Cc1c(O)ccc2c1O/C(=C\C=C\c1ccccc1)C2=O | -26.2% (inactive)

Same assay, conditions: HepG2 viability, ATP luminescence (CellTiter-Glo), 72 h; at 26 µM; active compounds read low; 0% = untreated, negative = ATP loss

Compound | max activity
CCCn1nnc(NC(=S)NC(=O)C(C)(C)C)n1 | -35.2% (inactive)
COc1cc2oc3cc(C#Cc4ccc(N)cc4)ccc3c(=O)c2cc1OC | -39.4% (inactive)
C[C@@H]1CN([C@H](C)CO)C(=O)CCCn2nncc2CO[C@H]1CN(C)Cc1ccc(Oc2ccccc2)cc1 | -33.6% (inactive)
O=C(O)c1ccc(N/N=C/c2ccc(OC(=O)c3cccc(Cl)c3)cc2)cc1 | -33.2% (inactive)
COc1ccc(C(C)(O)c2nc(-c3cccc(F)c3)cs2)cc1 (stereo unspecified) | -21.6% (inactive)
Cc1ccc2oc(/N=C(\N)NC(=O)C(C)(C)C)nc2c1 | -11.8% (inactive)
Cc1ccc(C(CC(=O)O)Nc2nc(N3CCOCC3)nc(N3CCOCC3)n2)cc1 (stereo unspecified) | 36.9% (inactive)
O=C(CN1C(=O)c2ccccc2S1(=O)=O)c1ccc(F)cc1 | 20.9% (inactive)
Cc1ccc2nc(-c3ccccc3)nn2c1 | -45.7% (inactive)
CCCCCCCCn1c2c(c(=N)c3c1CCC3)CCCC2 | -46.7% (inactive)
O=C(/C=C/c1ccc(Cl)cc1Cl)N(Cc1ccc(Cl)cc1)C1CCS(=O)(=O)C1 (stereo unspecified) | 14% (inactive)
COc1ccc(CNc2ncc(-c3ccc(F)cc3)n2C)c2ccccc12 | -23.1% (inactive)
O=C(N/N=C/c1ccc[nH]1)c1cc(-c2ccc(Cl)cc2)nc2ccccc12 | -21.3% (inactive)
Cc1cccc(NC(=O)CN2CCN(C(=O)CNC(=O)c3ccc(-c4ccccc4)cc3)CC2)c1C | -36.3% (inactive)
N#C[C@H]1N[C@H](CO)[C@H]1c1ccc(C#Cc2ccc(F)cc2)cc1 | -31.2% (inactive)
CCOc1ccc(OCc2ccc(C(=O)NN=Cc3ccc[nH]3)cc2)cc1 | -34% (inactive)
Cc1ccc(NC(=O)CCN2CCCCC2)cc1 | 20.8% (inactive)
CCOc1cc(N2CCC(O)CC2)ccc1Nc1ncc2c(n1)N(C)c1ccccc1C(=O)N2C | -18.4% (inactive)
